{"source": "patent US20060287383A1", "about": "“Substance exhibiting antidepressant property” (priority 2003, published 2006)", "key": {"[1]": {"system": "white outbred male rats", "assay": "reserpine depression method according to Bernardi", "format": "in vivo", "conditions": "for reduction of the diarrhea intensity / reduction of the intensity of ptosis: versus reserpine; for orientation and motion activity: reserpinized rats; for Diarrhea / Ptosis: 4-point scale; for Number of pulses in activity meter: three minutes, Varimex", "excerpt": "The method of reserpine depression according to Bernardi (Bernardi D., Paglialunga S., Jori A. Peripheral and central components in the hyperthermic effect of desipramine in rezerpinized rats//J. Pharm. Pharmacol., 1968, vol. 20, p. 204-209) is one of the basic models for assessing antidepressants in studies of new pharmaceuticals. The studies have been conducted with white outbred male rats having the weight from 200 to 240 grams. Reserpine has been introduced intraperitoneally, as a single dose of 2.5 mg/kg 2 hours before the introduction of phenotropyl (intraperitoneally, single doses of 25, 50, 100 and 200 mg/kg) and 3 hours before starting the study. The animals from the control group have received intraperitoneally distilled water only in the same volumes as the animals from the experimental groups. The antidepressant activity of phenotropyl has been assessed by its effect on sedation (suppression of the orientation and motion activity), intensity of ptosis and diarrhea, which have been caused by reserpine in the rats.\nThe orientation and motion activity of the animals has been studied for three minutes in a special activity meter (Varimex). The intensity of ptosis and diarrhea has been assessed on the standard 4-point scale (Mashkovsky M. D., Andreeva N. I., Polezhaeva A. I. Pharmacology of Antidepressants. Moscow, Medicine Publishers, 1983, p. 194-199)."}, "[2]": {"system": "white outbred male rats", "assay": "Porsolt method of behavioral despair (helplessness)", "format": "in vivo", "conditions": "for Time of immobility: 10 minutes observation", "excerpt": "The Porsolt method of behavioral despair (helplessness) (Porsolt R. D., Anton G., Blavet N. et al. Behavioral despair in rats: a new model sensitive to antidepressant treatment//Europ. J. Pharmacol. 1978—v. 47.—p. 379-391) is the basic model for assessing antidepressants (Andreeva N. I., ? H. ? . the Methodical Guidelines for Studying Antidepressant Activity of Pharmaceuticals,//Guidebook for Experimental (Preclinical) Studies of New Pharmaceuticals of the RF Ministry of Public Health.—ZAO IIA “Remedium”.—2000.—p. 121-125). The studies have been conducted on white outbred male rats having the weight of 230-250 grams. The animals have been put into a water reservoir having 40 cm in diameter and the depth of 60 cm, for the rats cannot either run out of the reservoir or find a support in it. The water temperature has been maintained at the level of 25° C., the experiments have been conducted within the period from 12 A.M. to 4 P.M. After coming into water the animals begin displaying energetic motion activity aimed at finding a way out of the aversive (troublesome) situation, but then they stop their attempts and take a typical position in the water, while being fully immovable or making insignificant motions necessary for keeping their heads over the water surface. The depressive condition intensity rate in this test is the duration of immobility. The immobility condition has been assessed visually, determining its duration within 10 minutes of the observations. Substances having antidepressant activity alleviate this condition by reducing the immobility time.\nThe studies have been conducted using animals divided into groups. The animals from the experimental groups have received single doses of phenotropyl in the amounts of 25, 50 and 100 mg/kg or the standard amitriptyline medication in the amount of 10 mg/kg (ampoule solution made by Spofa, the Czech Republic) in the volume corresponding to the dose. The animals from the control group have received distilled water in the same dosage. All the substances have been given intragastrically 40 minutes before the an experiment."}, "[3]": {"conditions": "reserpine 2.5 mg/kg + phenotropyl 25 mg/kg intraperitoneally"}, "[4]": {"conditions": "reserpine 2.5 mg/kg + phenotropyl 50 mg/kg intraperitoneally"}, "[5]": {"conditions": "reserpine 2.5 mg/kg + phenotropyl 100 mg/kg intraperitoneally"}, "[6]": {"conditions": "reserpine 2.5 mg/kg + phenotropyl 200 mg/kg intraperitoneally"}}}
{"smiles": "NC(=O)CN1CC(c2ccccc2)CC1=O", "note": "(stereo not drawn) [Phenotropyl, N-carbamoyl-methyl-4-phenyl-2-pyrrolidone]", "values": [{"measurement": "reduction of the diarrhea intensity", "setting": "[1]; phenotropyl 50 mg/kg", "value": 1.7, "unit": "times"}, {"measurement": "reduction of the intensity of ptosis", "setting": "[1]; phenotropyl 50 mg/kg", "value": 1.4, "unit": "times"}, {"measurement": "reduction of the diarrhea intensity", "setting": "[1]; phenotropyl 100 mg/kg", "value": 2.4, "unit": "times"}, {"measurement": "reduction of the diarrhea intensity", "setting": "[1]; phenotropyl 200 mg/kg", "value": 2.2, "unit": "times"}, {"measurement": "reduction of the intensity of ptosis", "setting": "[1]; phenotropyl 100 and 200 mg/kg", "value": 1.8, "unit": "times"}, {"measurement": "orientation and motion activity", "setting": "[1]; phenotropyl doses of 25 and 50 mg/kg", "value": "increased"}, {"measurement": "orientation and motion activity", "setting": "[1]; phenotropyl doses of 100 and 200 mg/kg", "value": "reliably corresponds to the control level"}, {"measurement": "Diarrhea", "setting": "[1]; [3]", "value": "2.0 ± 0.1", "unit": "points"}, {"measurement": "Ptosis", "setting": "[1]; [3]", "value": "3.0 ± 0.2", "unit": "points"}, {"measurement": "Number of pulses in activity meter", "setting": "[1]; [3]", "value": "20.3 ± 1.4"}, {"measurement": "Diarrhea", "setting": "[1]; [4]", "value": "1.4 ± 0.2", "unit": "points"}, {"measurement": "Ptosis", "setting": "[1]; [4]", "value": "2.5 ± 0.2", "unit": "points"}, {"measurement": "Number of pulses in activity meter", "setting": "[1]; [4]", "value": "22.8 ± 1.2"}, {"measurement": "Diarrhea", "setting": "[1]; [5]", "value": "1.0 ± 0.2", "unit": "points"}, {"measurement": "Ptosis", "setting": "[1]; [5]", "value": "2.0 ± 0.2", "unit": "points"}, {"measurement": "Number of pulses in activity meter", "setting": "[1]; [5]", "value": "30.6 ± 2.4"}, {"measurement": "Diarrhea", "setting": "[1]; [6]", "value": "1.1 ± 0.2", "unit": "points"}, {"measurement": "Ptosis", "setting": "[1]; [6]", "value": "2.0 ± 0.1", "unit": "points"}, {"measurement": "Number of pulses in activity meter", "setting": "[1]; [6]", "value": "33.9 ± 3.2"}, {"measurement": "reduction in the time of immobility as compared to the control group", "setting": "[2]; doses of 50 and 100 mg/kg", "value": 1.6, "unit": "times"}, {"measurement": "Time of immobility", "setting": "[2]; single dose 25 mg/kg intragastrically 40 minutes before", "value": "275.5 ± 84.2", "unit": "s"}, {"measurement": "Time of immobility", "setting": "[2]; single dose 50 mg/kg intragastrically 40 minutes before", "value": "185.7 ± 49.5", "unit": "s"}, {"measurement": "Time of immobility", "setting": "[2]; single dose 100 mg/kg intragastrically 40 minutes before", "value": "158.4 ± 43.2", "unit": "s"}, {"measurement": "antidepressant effect in behavioral despair test", "setting": "[2]; single doses of 50 and 100 mg/kg", "value": "pronounced antidepressant effect"}]}
